Measured values taken from patent publication US20240383908A1, “SYNTHESIS AND APPLICATION OF PHOSPHATASE DEGRADER” (HINOVA PHARMACEUTICALS INC., priority 2021, published 2024).
Counter-ions that a name gives are not always drawn.

target: T1, SHP2 protein (Homo sapiens, UniProt Q06124); assay: Degradation activity on SHP2 protein in MIA Paca-2 cells (Western blot, DC50); type: cell-based; parameters: endogenous in cells; host or cells: MIA Paca-2 cells; details: read-out: Degradation activity for differenct cell lines MIA Paca-2 (DC50)
T1 sequence (Q06124 1-593): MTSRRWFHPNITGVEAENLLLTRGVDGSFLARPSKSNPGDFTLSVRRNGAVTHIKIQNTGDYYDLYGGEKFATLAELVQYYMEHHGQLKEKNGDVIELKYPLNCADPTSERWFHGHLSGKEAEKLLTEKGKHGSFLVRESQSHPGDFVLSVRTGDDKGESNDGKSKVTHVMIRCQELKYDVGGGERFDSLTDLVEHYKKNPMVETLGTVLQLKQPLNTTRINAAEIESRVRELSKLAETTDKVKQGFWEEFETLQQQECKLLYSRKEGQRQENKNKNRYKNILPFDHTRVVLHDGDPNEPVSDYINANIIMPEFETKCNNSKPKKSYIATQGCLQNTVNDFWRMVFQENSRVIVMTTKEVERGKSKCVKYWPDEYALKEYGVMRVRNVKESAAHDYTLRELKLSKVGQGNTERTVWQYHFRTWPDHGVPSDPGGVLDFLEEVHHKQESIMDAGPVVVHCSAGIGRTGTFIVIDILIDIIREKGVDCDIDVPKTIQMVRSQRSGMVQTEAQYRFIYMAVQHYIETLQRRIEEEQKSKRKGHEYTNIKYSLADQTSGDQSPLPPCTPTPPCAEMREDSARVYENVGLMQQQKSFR
Experimental: (1) MV-411 cells were cultured in the cell culture medium, and then well-growing cells were selected and inoculated in a 12-well plate, with 1 mL/well and 1×10^6 cells/well. The plate was incubated overnight in a 5% CO2 cell incubator at 37° C.
(2) 10 mM storage solution of each drug was prepared using dimethylsulfoxide (DMSO). The stock solution was diluted gradually with DMSO before use, and then 1 μL of the compound solution was added to the cell culture well (to ensure that the DMSO concentration in the culture system was […]), so that the final drug concentration is 100 nM, 10 nM, 3 nM, 1 nM, 0.3 nM, and 0.1 nM. Two wells were set for each concentration. The plate was gently shaken and mixed. Additionally, negative control wells (containing an equal amount of DMSO) and positive control wells were included.
(3) After 24 hours of cultivation, the cells were lysed using RIPA cell lysate, and the proteins were extracted. The protein concentration was measured using a BCA assay kit. 5× concentrated protein buffer was loaded, heated at 100° C. for 5 min, and then the sample was stored at −20° C.
(4) For each well, 30 μg of protein was loaded to polyacrylamide gel for electrophoresis.
(5) The protein was transferred from polyacrylamide gel to PVDF membrane, and sealed at room temperature with 5% skimmed milk for 1 h, which was then incubated with the primary antibodies (Anti-SHP2 rabbit mAb and Anti-GAPDH rabbit mAb) at 4° C. overnight. The membrane was washed three times with TBST solution, 10 minutes for each time. After that, the membrane was incubated with the secondary antibodies (horseradish peroxidase labeled goat anti-rabbit IgG) at room temperature for 2 h, and then washed three times with TBST solution, 10 minutes for each time, followed by exposure.
(6) The images were analyzed with Image J grayscale, and the degradation ratio of protein bands in the test group was calculated, based on the negative control group (DMSO) (100%).
(7) Using the Dose-response-inhibition equation in the data processing software GraphPad Prism 8, the DC50 value was obtained (which represents the drug concentration corresponding to 50% degradation of the target protein).
Using similar methods and different cell lines, the degradation activity of the compound according to the present invention on SHP2 protein of different cell lines was tested under suitable culture conditions.

SMILES	DC50 [nM]
Cc1ncsc1-c1ccc([C@H](C)NC(=O)[C@@H]2C[C@@H](O)CN2C(=O)[C@@H](NC(=O)c2cnc(N3CCN(C4CC(C(=O)Nc5cccc(Sc6cnc(N7CCC8(CC7)CO[C@@H](C)[C@H]8N)cn6)c5)C4)CC3)nc2)C(C)(C)C)cc1 (stereo partly drawn) [Compound 294, 2-(4-(3-((3-((5-((3S,4S)-4-amino-3-methyl-2-oxa-8-azaspiro[4.5]decan-8-yl)pyrazin-2-yl)thio)phenyl)carbamoyl)cyclobutyl)piperazin-1-yl)-N—((S)-1-((2S,4R)-4-hydroxyl-2-(((S)-1-(4-(4-methylthiazol-5-yl)phenyl)ethyl)carbamoyl)pyrrolin-1-yl)-3,3-dimethyl-1-oxobutane-2-yl)pyrimidine-5-formamide hydrochloride]	< 100
C[C@@H]1OCC2(CCN(c3cnc(Sc4cccc(NC(=O)C5CC(N6CC=C(c7ccc(C(=O)NCc8ccc9c(c8)CN(C8CCC(=O)NC8=O)C9=O)nc7)CC6)C5)c4)cn3)CC2)[C@@H]1N (stereo partly shown) [Compound 477]	< 100
Cc1nc(C(=O)NCc2ccc3c(c2)CN(C2CCC(=O)NC2=O)C3=O)ccc1C1=CCN(C2CCN(c3ccc(C(=O)Nc4cccc(Sc5cnc(N6CCC7(CC6)CO[C@@H](C)[C@H]7N)cn5)c4)cc3F)CC2)CC1 (stereo partly drawn) [Compound 461, N-{[2-(2,6-oxohexahydropyridin-3-yl)-1-oxo-2,3-dihydro-1H-isoindol-5-yl]methyl}-5-(1-{1-[2-fluoro-4-({[3-({5-[(3S,4S)-4-amino-3-methyl-8-aza-2-oxaspiro[4.5]decan-8-yl]pyrazin-2-yl}thio)phenyl]amino}carbonyl)phenyl]hexahydropyridine-4-yl}-1,2,3,6-tetrahydropyridin-4-yl)-6-methylpyridine-2-formamide hydrochloride]	< 100
C[C@@H]1OCC2(CCN(c3cnc(Sc4cccc(NC(=O)c5ccc(N6CCC(N7CC=C(c8ncc(C(=O)NCc9ccc%10c(c9)CN(C9CCC(=O)NC9=O)C%10=O)cc8F)CC7)CC6)c(F)c5)c4)cn3)CC2)[C@@H]1N (stereo partly shown) [Compound 466]	< 100
C[C@@H]1OCC2(CCN(c3cnc(Sc4cccc(NC(=O)c5ccc(N6CCN(c7ccc(C(=O)NCc8ccc9c(c8)C(=O)N(C8CCC(=O)NC8=O)C9)nn7)CC6)c(F)c5)c4)cn3)CC2)[C@@H]1N (stereo partly shown) [Compound 261]	< 100
CC1(N)CCN(c2cnc(Sc3cccc(NC(=O)c4ccc(N5CCN(c6ccc(C(=O)NCc7ccc8c(c7)C(=O)N(C7CCC(=O)NC7=O)C8)nn6)CC5)c(F)c4)c3)cn2)CC1 (stereo not shown) [Compound 260]	> 1000
C[C@@H]1OCC2(CCN(c3cnc(Sc4cccc(NC(=O)CCN5CC=C(c6ccc(C(=O)NCc7ccc8c(c7)CN(C7CCC(=O)NC7=O)C8=O)nc6)C(C)(C)C5)c4)cn3)CC2)[C@@H]1N (stereo partly shown) [Compound 275]	> 1000
CC1(N)CCN(c2cnc(Sc3cccc(NC(=O)c4ccc(N5CCC(N6CC=C(c7ncc(C(=O)NCc8ccc9c(c8)CN(C8CCC(=O)NC8=O)C9=O)cc7C(F)(F)F)CC6)CC5)cc4)c3)cn2)CC1 (stereo not shown) [Compound 359]	< 100
CC1(N)CCN(c2cnc(Sc3cccc(NC(=O)c4cnc(N5CCC(N6CC=C(c7ccc(C(=O)NCc8ccc9c(c8)CN(C8CCC(=O)NC8=O)C9=O)nc7)CC6)CC5)o4)c3)cn2)CC1 (stereo not shown) [Compound 340]	> 1000
O=C1CCC(N2Cc3cc(CNC(=O)c4ccc(N5CCC6(CN(CCCCCCC(=O)Nc7cccc(Sc8cnc(N9CCCCC9)cn8)c7)C6)C5)nn4)ccc3C2=O)C(=O)N1 (stereo not shown) [Compound 212]	> 1000
CC1(N)CCN(c2cnc(Sc3cccc(NC(=O)c4ccc(N5CCC(N6CCN(c7ccc(C(=O)NCc8ccc9c(c8)CN(C8CCC(=O)NC8=O)C9=O)nn7)CC6)CC5)nn4)c3)cn2)CC1 (stereo not shown) [Compound 498]	100 to 1000
CC1(N)CCN(c2cnc(Sc3cccc(NC(=O)c4ccc(N5CCC(N6CCN(c7ccc(C(=O)NCc8ccc9c(c8)CN(C8CCC(=O)NC8=O)C9=O)cc7F)CC6)CC5)c(F)c4)c3)cn2)CC1 (stereo not shown) [Compound 499]	< 100
CC1(N)CCN(c2cnc(Sc3cccc(NC(=O)c4ccc(N5CCC(N6CC=C(c7ccc(C(=O)Nc8ccc9c(c8)CN(C8CCC(=O)NC8=O)C9=O)nn7)CC6)CC5)nc4)c3)cn2)CC1 (stereo not shown) [Compound 327]	< 100
Cc1cc(C(=O)NCc2ccc3c(c2)CN(C2CCC(=O)NC2=O)C3=O)ncc1C1=CCN(C2CCN(c3ccc(C(=O)Nc4cccc(Sc5cnc(N6CCC(C)(N)CC6)cn5)c4)cc3C)CC2)CC1 (stereo not shown) [Compound 456]	100 to 1000
CC1(N)CCN(c2cnc(-c3cccc(NC(=O)c4ccc(N5CCC(N6CC=C(c7ccc(C(=O)NCc8ccc9c(c8)CN(C8CCC(=O)NC8=O)C9=O)nn7)CC6)CC5)cc4)c3)cn2)CC1 (stereo not shown) [Compound 407]	> 1000
C[C@@H]1OCC2(CCN(c3cnc(Sc4cccc(NC(=O)c5ccc(N6CCC(N7CC=C(c8ccc(C(=O)NCc9ccc%10c(c9)CN(C9CCC(=O)NC9=O)C%10=O)nc8)CC7)CC6)cc5)c4)cn3)CC2)[C@@H]1N (stereo partly shown) [Compound 411]	< 100
CC1(N)CCN(c2cnc(Sc3cccc(NC(=O)C4CC(N5CC=C(c6ccc(C(=O)NCc7ccc8c(c7)C(=O)N(C7CCC(=O)NC7=O)C8)nc6)CC5)C4)c3)cn2)CC1 (stereo not shown) [Compound 302]	> 1000
C[C@@H]1OCC2(CCN(c3cnc(Sc4cccc(NC(=O)C5CCC(N6CC=C(c7ccc(C(=O)NCc8ccc9c(c8)CN(C8CCC(=O)NC8=O)C9=O)nc7)CC6)CC5)c4)cn3)CC2)[C@@H]1N (stereo partly shown) [Compound 474]	< 100
CC1(N)CCN(c2cnc(Sc3cccc(NC(=O)CCCCCCN4CCC5(CC4)CC(=O)N(CC(=O)NCc4ccc6c(c4)CN(C4CCC(=O)NC4=O)C6=O)C5)c3)cn2)CC1 (stereo not shown) [Compound 215]	> 1000
CC1(N)CCN(c2cnc(Sc3cccc(NC(=O)[C@H]4C[C@@H]4c4ccc(N5CCN(c6ccc(C(=O)N7CCN(c8ccc9c(c8)CN(C8CCC(=O)NC8=O)C9=O)CC7)nn6)CC5)c(F)c4)c3)cn2)CC1 (stereo partly shown) [Compound 283]	> 1000
CC1(N)CCN(c2cnc(Sc3cccc(NC(=O)c4ccc(N5CCC(N6CCN(c7ccc(C(=O)NCc8ccc9c(c8)CN(C8CCC(=O)NC8=O)C9=O)c(F)c7)CC6)CC5)c(F)c4)c3)cn2)CC1 (stereo not shown) [Compound 503]	< 100
Cc1cc(N2CCC(N3CC=C(c4ccc(C(=O)NCc5ccc6c(c5)CN(C5CCC(=O)NC5=O)C6=O)nc4Cl)CC3)CC2)ccc1C(=O)Nc1cccc(Sc2cnc(N3CCC(C)(N)CC3)cn2)c1 (stereo not shown) [Compound 444]	< 100
CC1(N)CCN(c2cnc(Sc3cccc(NC(=O)c4ccc(N5CCC(N6CCN(c7nnc(C(=O)NCc8ccc9c(c8)CN(C8CCC(=O)NC8=O)C9=O)cc7Cl)CC6)CC5)nc4)c3)cn2)CC1 (stereo not shown) [Compound 492]	< 100
CC1(N)CCN(c2cnc(Sc3cccc(NC(=O)c4ccc(N5CCC(N6CC=C(C7CCC(C(=O)NCc8ccc9c(c8)CN(C8CCC(=O)NC8=O)C9=O)CC7)CC6)CC5)c(F)c4)c3)cn2)CC1 (stereo not shown) [Compound 511]	< 100
C[C@@H]1OCC2(CCN(c3cnc(Sc4cccc(NC(=O)c5ccc(N6CCC(N7CC=C(c8ccc(C(=O)NCc9ccc%10c(c9)CN(C9CCC(=O)NC9=O)C%10=O)nc8Cl)CC7)CC6)c(F)c5)c4)cn3)CC2)[C@@H]1N (stereo partly shown) [Compound 463]	> 1000
CC1(N)CCN(c2cnc(Sc3cccc(NC(=O)C4CC45CCC(N4CC=C(c6ccc(C(=O)Nc7ccc8c(c7)CN(C7CCC(=O)NC7=O)C8=O)nc6)CC4)CC5)c3)cn2)CC1 (single isomer, unassigned) [Compound 316]	> 1000
CC1(N)CCN(c2cnc(Sc3cccc(NCc4ccc(N5CCN(c6ccc(C(=O)NCc7ccc8c(c7)C(=O)N(C7CCC(=O)NC7=O)C8)nn6)CC5)c(F)c4)c3)cn2)CC1 (stereo not shown) [Compound 258]	> 1000
CC1(N)CCN(c2cnc(Sc3cccc(NC(=O)c4ccc(N5CCC(N6CC=C(c7cnc(C(=O)NCc8ccc9c(c8)CN(C8CCC(=O)NC8=O)C9=O)c(Cl)c7)CC6)CC5)c(F)c4)c3)cn2)CC1 (stereo not shown) [Compound 413]	< 100
